Source: patent US20210130316A1, “MORPHINAN DERIVATIVES AND COMPOSITIONS COMPRISING THE SAME FOR TREATING AUTOIMMUNE, IN[…] INFECTION RELATED DISORDERS” (TAIWANJ PHARMACEUTICALS CO., LTD, priority 2017, published 2021)

How the values were obtained:
[1] = molecular target: T1, Toll-like receptor 4 (TLR4) (Homo sapiens, UniProt O00206+Q9Y6Y9); experiment: NF-κB-inducible SEAP reporter assay of LPS-stimulated TLR4 activity in TLR4-expressing HEK293 cells; assay type: cell-based; conditions: for TLR-4 antagonist activity in words (summary of Table 3): 20 μM; for inhibition at 20 µM: compound 20 μM, LPS 10 ng/ml, 16-24 hours incubation, TLR4-expressing HEK293 cells, read-out: TLR-4 inhibition (%) Average
T1 construct: expressed in transfected cells; host or cells: HEK293
Method: Stimulation of the Toll-like receptor 4 (TLR4) was determined by assessing activation of the transcription factor NF-κB in HEK293 cells that were engineered to express TLR4. Assessment of TLR4 stimulation was based on the use of an NF-κB-inducible secreted alkaline phosphatase (SEAP) reporter system in which the SEAP reporter was under the control of a promoter inducible by NF-κB. Thus, the degree of activation of TLR4 can be indirectly quantified spectrophotometrically by measuring the amount of the SEAP reporter that is produced.
The TLR4-expressing cells were plated in HEK-Blue Detection (Invivogen, San Diego, Calif.) medium in a 96-well plate (25,000-50,000 cells/well). The cells were stimulated with lipopolysaccharides (LPS) alone or in combination with the compound of example 1. Cell culture without LPS and the compound of example 1 was defined as baseline control. To test whether the compound of example 1 could block that activation of the TLR4, the cells were treated with the compound of example 1 (20 μM) and LPS (final conc. 10 ng/ml/well). After a16-24 hours incubation period at 37° C. in a CO2 incubator, The signals of individual samples in 96-well plates were detected at O.D.650 nm with a Molecular Devices SpectraMax i3 Imaging Cytometer. The TLR4 activity was expressed in percentage of LPS alone-stimulated cells minus baseline control.

HEK293 cells = experiment: Cell viability assay (MTT method); assay type: cell-based; conditions: compound 20 μM, percentage of viable LPS-stimulated cells
Method: HEK 293 cells (2.5-5.0×10^4 cells/well) were seeded in 96-well plate for overnight and treated with different compounds for 16-24 hours. Cell growth was determined by MTh-based colorimetric assays. Viability of the test cells treated with vehicle (0.5% DMSO) only was defined as 100% viable. Survival of cells after treatment with DETDs was calculated using the following formula:
Viable cell number (%)=OD570 (treated cell culture)/OD570 (vehicle control)×100.
The ell viability assay was performed by the MTT method. Cells were incubated with 45 μl of 5 mg/ml MTT for 1 hour at 37° C., and 150 μl of DMSO was added at the end of culture to dissolve the crystals. The signals of individual samples in 96-well plates were detected at O.D.570 nm with Molecular Device SpectraMax Imaging Cytometer. Cell viability was expressed in percentage of viable LPS-stimulated cells.

T1 sequence (O00206 24-839, species assumed): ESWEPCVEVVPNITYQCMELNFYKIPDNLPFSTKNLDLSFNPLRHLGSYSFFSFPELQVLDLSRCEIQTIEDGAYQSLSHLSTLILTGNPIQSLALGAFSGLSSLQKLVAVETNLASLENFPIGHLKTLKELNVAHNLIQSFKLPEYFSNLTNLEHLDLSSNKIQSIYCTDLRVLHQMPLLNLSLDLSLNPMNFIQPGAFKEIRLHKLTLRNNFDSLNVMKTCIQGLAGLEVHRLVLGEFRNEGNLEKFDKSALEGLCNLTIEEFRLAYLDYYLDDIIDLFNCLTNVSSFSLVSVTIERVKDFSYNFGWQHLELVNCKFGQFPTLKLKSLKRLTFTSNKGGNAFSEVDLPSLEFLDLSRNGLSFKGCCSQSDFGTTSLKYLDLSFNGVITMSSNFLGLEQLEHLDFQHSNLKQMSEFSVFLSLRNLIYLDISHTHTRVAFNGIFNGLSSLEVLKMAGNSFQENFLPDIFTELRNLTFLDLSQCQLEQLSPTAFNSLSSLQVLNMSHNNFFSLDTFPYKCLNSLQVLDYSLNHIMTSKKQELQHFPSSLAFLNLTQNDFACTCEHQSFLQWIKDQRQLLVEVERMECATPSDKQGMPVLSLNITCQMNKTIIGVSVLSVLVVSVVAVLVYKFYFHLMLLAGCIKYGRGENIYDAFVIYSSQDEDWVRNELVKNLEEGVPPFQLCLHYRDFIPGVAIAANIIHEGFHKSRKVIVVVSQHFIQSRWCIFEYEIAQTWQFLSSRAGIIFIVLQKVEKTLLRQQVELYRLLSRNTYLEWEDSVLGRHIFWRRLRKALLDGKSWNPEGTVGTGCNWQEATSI
T1 sequence (Q9Y6Y9 17-160 limits assumed, species assumed): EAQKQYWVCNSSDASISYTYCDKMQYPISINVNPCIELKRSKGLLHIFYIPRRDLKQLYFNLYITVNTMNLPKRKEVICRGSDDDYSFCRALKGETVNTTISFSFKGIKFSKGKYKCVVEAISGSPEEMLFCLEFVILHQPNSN

Nc1ccc(N2CC[C@@]34CCCC[C@@H]3[C@@H]2Cc2ccc(O)cc24)cc1 [Compound 4]
TLR-4 antagonist activity in words (summary of Table 3) [1]: strong antagonists of TLR-4 | inhibition at 20 µM [1]: 90.5% | Cell viability (%) Average (HEK293 cells): 92.2%

Nc1ccc(N2CC[C@@]34CCCC[C@@H]3[C@@H]2Cc2ccc(O)cc24)cc1N [Compound 18]
TLR-4 antagonist activity in words (summary of Table 3) [1]: remarkable inhibitions on TLR-4 | inhibition at 20 µM [1]: 57.7% | Cell viability (%) Average (HEK293 cells): 143.0%

COc1ccc2c(c1)[C@]13CCCC[C@@H]1[C@H](C2)N(c1ccc([N+](=O)[O-])c(N)c1)CC3 [Compound 5]
TLR-4 antagonist activity in words (summary of Table 3) [1]: weak to negligible activity towards TLR-4 | inhibition at 20 µM [1]: 13.2% | Cell viability (%) Average (HEK293 cells): 110.9%

Nc1ccc(N2CC[C@@]34CCCC[C@@H]3[C@@H]2Cc2ccc(O)cc24)nc1 [Compound 25]
TLR-4 antagonist activity in words (summary of Table 3) [1]: weak to negligible activity towards TLR-4 | inhibition at 20 µM [1]: 13.3% | Cell viability (%) Average (HEK293 cells): 100.8%

O=[N+]([O-])c1ccc(N2CC[C@@]34CCCC[C@@H]3[C@@H]2Cc2ccc(O)cc24)cc1 [Compound 3]
TLR-4 antagonist activity in words (summary of Table 3) [1]: weak to negligible activity towards TLR-4 | inhibition at 20 µM [1]: 0% | Cell viability (%) Average (HEK293 cells): 82.1%

COc1ccc2c(c1)[C@]13CCCC[C@@H]1[C@H](C2)N(CC(O)CN1CCOCC1)CC3 (stereo partly drawn) [Compound 13]
TLR-4 antagonist activity in words (summary of Table 3) [1]: weak to negligible activity towards TLR-4 | inhibition at 20 µM [1]: 2.8% | Cell viability (%) Average (HEK293 cells): 101.5%

Nc1ccc(N2CC[C@@]34CCCC[C@@H]3[C@@H]2Cc2ccc(O)cc24)c(C(F)(F)F)c1 [Compound 23]
TLR-4 antagonist activity in words (summary of Table 3) [1]: weak to negligible activity towards TLR-4 | inhibition at 20 µM [1]: 22.9% | Cell viability (%) Average (HEK293 cells): 96.2%

Nc1ccc(N2CC[C@@]34CCCC[C@@H]3[C@@H]2Cc2ccc(O)cc24)c(F)c1 [Compound 21]
TLR-4 antagonist activity in words (summary of Table 3) [1]: weak to negligible activity towards TLR-4 | inhibition at 20 µM [1]: 13.8% | Cell viability (%) Average (HEK293 cells): 97.4%

Nc1ccc(S(=O)(=O)N2CC[C@@]34CCCC[C@@H]3[C@@H]2Cc2ccc(O)cc24)cc1 [Compound 16]
TLR-4 antagonist activity in words (summary of Table 3) [1]: moderate to mild inhibitory activity toward TLR-4 | inhibition at 20 µM [1]: 42.1% | Cell viability (%) Average (HEK293 cells): 75.5%

CCOC(=O)Nc1ccc(N2CC[C@@]34CCCC[C@@H]3[C@@H]2Cc2ccc(OC)cc24)cc1 [Compound 7]
TLR-4 antagonist activity in words (summary of Table 3) [1]: weak to negligible activity towards TLR-4 | inhibition at 20 µM [1]: 0% | Cell viability (%) Average (HEK293 cells): 79.3%

CC(=O)Nc1ccc(S(=O)(=O)N2CC[C@@]34CCCC[C@@H]3[C@@H]2Cc2ccc(O)cc24)cc1 [Compound 15]
TLR-4 antagonist activity in words (summary of Table 3) [1]: moderate to mild inhibitory activity toward TLR-4 | inhibition at 20 µM [1]: 45.1% | Cell viability (%) Average (HEK293 cells): 104.0%

O=[N+]([O-])c1ccc(N2CC[C@@]34CCCC[C@@H]3[C@@H]2Cc2ccc(O)cc24)nc1 [Compound 24]
TLR-4 antagonist activity in words (summary of Table 3) [1]: moderate to mild inhibitory activity toward TLR-4 | inhibition at 20 µM [1]: 43.5% | Cell viability (%) Average (HEK293 cells): 103.3%

CC(C)Nc1ccc(N2CC[C@@]34CCCC[C@@H]3[C@@H]2Cc2ccc(O)cc24)cc1 [Compound 20]
TLR-4 antagonist activity in words (summary of Table 3) [1]: strong antagonists of TLR-4 | inhibition at 20 µM [1]: 99.8% | Cell viability (%) Average (HEK293 cells): 89.9%

Nc1cc(N2CC[C@@]34CCCC[C@@H]3[C@@H]2Cc2ccc(O)cc24)ccc1[N+](=O)[O-] [Compound 17]
TLR-4 antagonist activity in words (summary of Table 3) [1]: remarkable inhibitions on TLR-4 | inhibition at 20 µM [1]: 53.1% | Cell viability (%) Average (HEK293 cells): 116.0%

COc1ccc2c(c1)[C@]13CCCC[C@@H]1[C@H](C2)N(CC(O)COc1ccccc1)CC3 (stereo partly drawn) [Compound 11]
TLR-4 antagonist activity in words (summary of Table 3) [1]: remarkable inhibitions on TLR-4 | inhibition at 20 µM [1]: 54.5% | Cell viability (%) Average (HEK293 cells): 88.8%

Cc1cc(N2CC[C@@]34CCCC[C@@H]3[C@@H]2Cc2ccc(O)cc24)ccc1N [Compound 22]
TLR-4 antagonist activity in words (summary of Table 3) [1]: remarkable inhibitions on TLR-4 | inhibition at 20 µM [1]: 64.2% | Cell viability (%) Average (HEK293 cells): 101.7%

COc1ccc2c(c1)[C@]13CCCC[C@@H]1[C@H](C2)N(c1ccc(NC(=O)CCCc2ccccc2)cc1)CC3 [Compound 8]
TLR-4 antagonist activity in words (summary of Table 3) [1]: weak to negligible activity towards TLR-4 | inhibition at 20 µM [1]: 6% | Cell viability (%) Average (HEK293 cells): 104.7%

COc1ccc2c(c1)[C@]13CCCC[C@@H]1[C@H](C2)N(S(=O)(=O)c1ccc(N)cc1)CC3 [Compound 10]
TLR-4 antagonist activity in words (summary of Table 3) [1]: moderate to mild inhibitory activity toward TLR-4 | inhibition at 20 µM [1]: 30% | Cell viability (%) Average (HEK293 cells): 111.6%

COc1ccc2c(c1)[C@]13CCCC[C@@H]1[C@H](C2)N(CC(O)CSc1ccccc1)CC3 (stereo partly drawn) [Compound 12]
TLR-4 antagonist activity in words (summary of Table 3) [1]: remarkable inhibitions on TLR-4 | inhibition at 20 µM [1]: 59.1% | Cell viability (%) Average (HEK293 cells): 81.3%

COc1ccc2c(c1)[C@]13CCCC[C@@H]1[C@H](C2)N(c1ccc(N)cc1)CC3 [Compound 6]
TLR-4 antagonist activity in words (summary of Table 3) [1]: moderate to mild inhibitory activity toward TLR-4 | inhibition at 20 µM [1]: 37.7% | Cell viability (%) Average (HEK293 cells): 83.1%

CC(C)N(c1ccc(N2CC[C@@]34CCCC[C@@H]3[C@@H]2Cc2ccc(O)cc24)cc1)C(C)C [Compound 19]
TLR-4 antagonist activity in words (summary of Table 3) [1]: remarkable inhibitions on TLR-4 | inhibition at 20 µM [1]: 75.3% | Cell viability (%) Average (HEK293 cells): 99.2%

COc1ccc2c(c1)[C@]13CCCC[C@@H]1[C@H](C2)N(S(=O)(=O)c1ccc([N+](=O)[O-])cc1)CC3 [Compound 9]
TLR-4 antagonist activity in words (summary of Table 3) [1]: moderate to mild inhibitory activity toward TLR-4 | inhibition at 20 µM [1]: 23.7% | Cell viability (%) Average (HEK293 cells): 104.1%
